Laboratory results published in patent US10669235B2, “Indole derivatives and their use as protein kinase inhibitors” (RESPIVERT LIMITED, priority 2016, dated 2020).
Counter-ions that a name gives are not always drawn. Like-named read-outs stand apart in the source and are kept apart here.

Key:
PDGFRβ = PDGFRβ (Homo sapiens (Human), UniProt P09619); test: PDGF-BB induced phosphorylation of PDGFRβ in fibroblasts (MRC5, HTRF); format: cell-based; details: MRC5 cells, PDGFBB stimulation; read-out: PDGFBB-induced PDGFRβ phosphorylation in MRC5 cells (IC50)
PAMPA permeability assay = format: in vitro ADME; details: pH 7, PAMPA; for Papp at 5 hr, 10 μM: pH 7, 10 μM
MRC5 cells = test: Cell viability assay in MRC5 cells (MTT)
[1] = Pharmacokinetic measurements in rats (i.v., i.t., oral); format: in vivo; details: rat; for concentration at 0.1 h: read-out: lung concentration (nM) at time 0.1 h; for concentration at 1.5 h: read-out: lung concentration (nM) at time 1.5 h; for concentration at 6 h: read-out: lung concentration (nM) at time 6 h; for concentration at 24 h: read-out: lung concentration (nM) at time 24 h
[2] = i.t. dose 0.1 (nintedanib 0.42), 0.1 h
[3] = i.t. dose 0.1 (nintedanib 0.42), 1.5 h
[4] = i.t. dose 0.1 (nintedanib 0.42), 6 h
[5] = i.t. dose 0.1 (nintedanib 0.42), 24 h
[6] = i.v. dose 0.1 (nintedanib 0.42), 0.1 h
[7] = i.v. dose 0.1 (nintedanib 0.42), 1.5 h
[8] = i.v. dose 0.1 (nintedanib 0.42), 6 h
[9] = i.v. dose 0.1 (nintedanib 0.42), 24 h

Sequence of PDGFRβ (P09619 33-1106): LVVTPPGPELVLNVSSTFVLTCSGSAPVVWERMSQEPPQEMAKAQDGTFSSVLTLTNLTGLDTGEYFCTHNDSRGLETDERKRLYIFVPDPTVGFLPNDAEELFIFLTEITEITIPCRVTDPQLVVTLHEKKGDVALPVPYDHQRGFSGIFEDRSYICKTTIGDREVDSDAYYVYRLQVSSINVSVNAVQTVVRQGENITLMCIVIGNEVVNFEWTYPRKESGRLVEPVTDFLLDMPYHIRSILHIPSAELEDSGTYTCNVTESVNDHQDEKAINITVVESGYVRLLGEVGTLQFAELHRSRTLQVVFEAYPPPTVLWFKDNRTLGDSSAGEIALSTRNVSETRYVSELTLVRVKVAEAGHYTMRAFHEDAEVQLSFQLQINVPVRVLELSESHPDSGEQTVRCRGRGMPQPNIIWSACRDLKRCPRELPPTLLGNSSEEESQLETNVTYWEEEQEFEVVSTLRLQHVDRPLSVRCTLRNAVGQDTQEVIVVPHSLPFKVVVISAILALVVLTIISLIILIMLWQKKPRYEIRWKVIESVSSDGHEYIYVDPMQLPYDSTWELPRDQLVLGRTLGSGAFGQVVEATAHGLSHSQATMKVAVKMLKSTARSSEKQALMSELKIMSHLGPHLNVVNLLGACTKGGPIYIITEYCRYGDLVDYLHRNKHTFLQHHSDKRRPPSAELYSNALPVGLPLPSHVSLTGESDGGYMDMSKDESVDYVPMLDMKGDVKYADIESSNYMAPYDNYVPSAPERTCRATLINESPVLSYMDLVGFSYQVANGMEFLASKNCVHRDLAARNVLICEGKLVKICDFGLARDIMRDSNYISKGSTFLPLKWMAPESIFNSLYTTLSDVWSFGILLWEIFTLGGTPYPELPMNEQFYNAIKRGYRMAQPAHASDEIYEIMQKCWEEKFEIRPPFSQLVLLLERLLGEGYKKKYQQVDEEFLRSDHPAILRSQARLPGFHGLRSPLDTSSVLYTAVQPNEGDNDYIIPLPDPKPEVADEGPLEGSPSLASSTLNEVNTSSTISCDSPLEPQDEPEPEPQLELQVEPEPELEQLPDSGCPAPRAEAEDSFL

Structure (SMILES): COC(=O)c1cc2c(cc1C)/C(=C(/Nc1ccc(S(=O)(=O)NCCN3CCN(C)CC3)cc1)c1ccccc1)C(=O)N2 [Example 1, (Z)-Methyl 5-methyl-3-(((4-(N-(2-(4-methylpiperazin-1-yl)ethyl)sulfamoyl)phenyl)amino)(phenyl)methylene)-2-oxoindoline-6-carboxylate, 0.8 formate]
- IC50 (PDGFRβ): 25.6 nM
- recovery at 5 hr, 10 μM (PAMPA permeability assay): 92%
- Papp at 5 hr, 10 μM (PAMPA permeability assay): 0.123 ×10⁻⁶ cm/s
- Cell viability at 100 nM (%) (MRC5 cells): 103.6%
- Cell viability at 300 nM (%) (MRC5 cells): 89%
- Cell viability at 1000 nM (%) (MRC5 cells): 68.7%

Structure (SMILES): COC(=O)c1cc2c(cc1C)/C(=C(/Nc1ccc(C(=O)NCCN3CCCN(C)CC3)cc1)c1ccccc1)C(=O)N2 [Example 5, (Z)-Methyl 5-methyl-3-(((4-((2-(4-methyl-1,4-diazepan-1-yl)ethyl)carbamoyl)phenyl)amino) (phenyl)methylene)-2-oxoindoline-6-carboxylate, formate]
- IC50 (PDGFRβ): 15 nM
- recovery at 5 hr, 10 μM (PAMPA permeability assay): 58.7%
- Papp at 5 hr, 10 μM (PAMPA permeability assay): 0.00254 ×10⁻⁶ cm/s
- Lung conc i.t./i.v. Ratio at time 0.1 h ([1]; 0.1 h): 7
- Lung conc i.t./i.v. Ratio at time 1.5 h ([1]; 1.5 h): 12
- Lung conc i.t./i.v. Ratio at time 6 h ([1]; 6 h): 2
- Lung conc i.t./i.v. Ratio at time 24 h ([1]; 24 h): 7
- BAL % administered dose at time 0.1 h [1, 2]: 13.6%
- lung/plasma conc ratio at time 0.1 h [1, 2]: 371
- concentration at 0.1 h [1, 2]: 5506 nM
- BAL % administered dose at time 1.5 h [1, 3]: 0.9%
- lung/plasma conc ratio at time 1.5 h [1, 3]: >2285
- concentration at 1.5 h [1, 3]: 4022 nM
- BAL % administered dose at time 6 h [1, 4]: 0.2%
- lung/plasma conc ratio at time 6 h [1, 4]: >606
- concentration at 6 h [1, 4]: 1067 nM
- BAL % administered dose at time 24 h [1, 5]: 0.2%
- lung/plasma conc ratio at time 24 h [1, 5]: >951
- concentration at 24 h [1, 5]: 1674 nM
- BAL % administered dose at time 0.1 h [1, 6]: BQL
- lung/plasma ratio at time 0.1 h [1, 6]: 127
- concentration at 0.1 h [1, 6]: 765 nM
- BAL % administered dose at time 1.5 h [1, 7]: BQL
- lung/plasma ratio at time 1.5 h [1, 7]: >188
- concentration at 1.5 h [1, 7]: 330 nM
- BAL % administered dose at time 6 h [1, 8]: BQL
- lung/plasma ratio at time 6 h [1, 8]: >284
- concentration at 6 h [1, 8]: 499 nM
- BAL % administered dose at time 24 h [1, 9]: BQL
- lung/plasma ratio at time 24 h [1, 9]: >140
- concentration at 24 h [1, 9]: 247 nM
- Cell viability at 100 nM (%) (MRC5 cells): 91.5%
- Cell viability at 300 nM (%) (MRC5 cells): 81%
- Cell viability at 1000 nM (%) (MRC5 cells): 84.8%

Structure (SMILES): COC(=O)c1cc2c(cc1C)/C(=C(/Nc1ccc(C(=O)NCC(=O)N3CCN(C)CC3)cc1)c1ccccc1)C(=O)N2 [Example 8, (Z)-Methyl 5-methyl-3-(((4-((2-(4-methylpiperazin-1-yl)-2-oxoethyl)carbamoyl)phenyl)amino) (phenyl)methylene)-2-oxoindoline-6-carboxylate, 0.5 formate]
- IC50 (PDGFRβ): 12 nM
- recovery at 5 hr, 10 μM (PAMPA permeability assay): 87.8%
- Papp at 5 hr, 10 μM (PAMPA permeability assay): 0.156 ×10⁻⁶ cm/s
- Cell viability at 100 nM (%) (MRC5 cells): 110.4%
- Cell viability at 300 nM (%) (MRC5 cells): 108.2%
- Cell viability at 1000 nM (%) (MRC5 cells): 77.7%

Structure (SMILES): COC(=O)c1cc2c(cc1C)/C(=C(/Nc1ccc(C(=O)NCCN3CCC(O)CC3)cc1)c1ccccc1)C(=O)N2 [Example 12, (Z)-Methyl 3-(((4-((2-(4-hydroxypiperidin-1-yl)ethyl)carbamoyl)phenyl)amino)(phenyl)methylene)-5-methyl-2-oxoindoline-6-carboxylate, 0.8 formate]
- IC50 (PDGFRβ): 4.23 nM
- recovery at 5 hr, 10 μM (PAMPA permeability assay): 87.7%
- Papp at 5 hr, 10 μM (PAMPA permeability assay): 0.00638 ×10⁻⁶ cm/s
- Cell viability at 100 nM (%) (MRC5 cells): 92.2%
- Cell viability at 300 nM (%) (MRC5 cells): 105.5%
- Cell viability at 1000 nM (%) (MRC5 cells): 93.4%

Structure (SMILES): COC(=O)c1cc2c(cc1C)/C(=C(/Nc1ccc(C(=O)NCC3CCN(CCO)CC3)cc1)c1ccccc1)C(=O)N2 [Example 14, (Z)-Methyl 3-(((4-(((1-(2-hydroxyethyl)piperidin-4-yl)methyl)carbamoyl)phenyl)amino) (phenyl)methylene)-5-methyl-2-oxoindoline-6-carboxylate]
- Cell viability at 100 nM (%) (MRC5 cells): 116.2%
- Cell viability at 300 nM (%) (MRC5 cells): 107.9%
- Cell viability at 1000 nM (%) (MRC5 cells): 61%

Structure (SMILES): COC(=O)c1cc2c(cc1C)/C(=C(/Nc1ccc(C(=O)N3CCN(CC(=O)NCCO)CC3)cc1)c1ccccc1)C(=O)N2 [Example 15, (Z)-Methyl 3-(((4-(4-(2-((2-hydroxyethyl)amino)-2-oxoethyl)piperazine-1-carbonyl)phenyl)amino) (phenyl)methylene)-5-methyl-2-oxoindoline-6-carboxylate]
- Cell viability at 100 nM (%) (MRC5 cells): 91.3%
- Cell viability at 300 nM (%) (MRC5 cells): 109.9%
- Cell viability at 1000 nM (%) (MRC5 cells): 85.6%
